In patent publication US9795646B2, “Boswellia oil, its fractions and compositions for enhancing brain function” (LAILA NUTRACEUTICALS, priority 2010, dated 2017):
Converted amounts (≈) assume the structure as drawn. “And” between values parts separate entries of the source, which are not always exact repeats. Equal values may be shown once.

How the values were obtained:
[1] = target: T1, acetylcholine esterase (AChE) (Rattus norvegicus, UniProt P37136); test: Acetylcholine esterase inhibitory activity in β-amyloid peptide induced PC 12 cells; assay type: cell-based; conditions: PC 12 cells
T1 construct: The cell extracts were used as samples for measuring the acetylcholine esterase (AChE) activity; endogenous in cells; host or cells: rat pheochromocytoma PC 12 cells, induced with β-amyloid peptide
T1 sequence (P37136 32-614): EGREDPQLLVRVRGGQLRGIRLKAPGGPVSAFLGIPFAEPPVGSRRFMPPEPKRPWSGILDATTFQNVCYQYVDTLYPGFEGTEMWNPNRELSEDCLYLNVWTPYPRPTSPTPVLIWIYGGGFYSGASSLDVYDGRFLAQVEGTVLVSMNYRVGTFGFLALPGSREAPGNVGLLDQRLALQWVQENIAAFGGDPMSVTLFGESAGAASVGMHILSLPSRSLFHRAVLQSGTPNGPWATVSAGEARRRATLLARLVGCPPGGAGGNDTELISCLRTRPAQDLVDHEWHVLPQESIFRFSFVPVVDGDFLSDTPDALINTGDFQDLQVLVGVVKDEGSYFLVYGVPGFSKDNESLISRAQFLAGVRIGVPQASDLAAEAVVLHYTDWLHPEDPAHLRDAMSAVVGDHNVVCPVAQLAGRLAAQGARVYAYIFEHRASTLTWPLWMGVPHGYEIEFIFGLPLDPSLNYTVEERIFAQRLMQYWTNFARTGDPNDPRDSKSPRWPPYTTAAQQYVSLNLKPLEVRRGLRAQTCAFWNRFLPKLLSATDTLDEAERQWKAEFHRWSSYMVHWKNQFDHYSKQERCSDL
Method: (§1) As a part of developing new agents for improving brain/mental function and alleviating disease conditions related to cognition and memory deficits, a large number of plant extracts have been screened for their inhibitory property on Acetylcholinesterase enzyme activity. The assay was performed in vitro by the method of Ellman et al., with minor modifications, using acetylthiocholine iodide as a substrate (Lee J. H., et. al. Arch Pharm Res 2004, 27(1): 53-56). […] Its acetylcholinesterase inhibitory activity was also evaluated by a cell based in vitro assay in Rat pheochromocytoma PC 12 cells. […] Rat pheochromocytoma PC 12 cells were equally distributed with phenol red free Dulbecco's modified Eagle's red medium (DMEM) (Sigma Life Science, USA) containing 10% fetal bovine serum (FBS) in 24-well plate. […] Thereafter, cells were induced with 1 μg/mL of β-amyloid peptide (Calbiochem, USA) for 24 h at 37° C. After 24 h, cells were collected and washed twice with 1×PBS by centrifugation at 1200 rpm for 5 min at 4° C. The cell extracts were prepared in solubilization buffer and the cell lysates were analyzed for acetylcholine esterase (AChE) activity.
The inhibitory property on the enzyme activity was assessed in β-amyloid peptide induced-rat pheochromocytoma PC 12 cells. Rat pheochromocytoma PC 12 cells were equally distributed with phenol red free Dulbecco's modified Eagle's red medium (DMEM) (Sigma Life Science, USA) containing 10% fetal bovine serum (FBS) in 24-well plate. […] Thereafter, cells were induced with 1 μg/mL of β-amyloid peptide (Calbiochem, USA) for 24 h at 37° C. After 24 h, cells were collected and washed twice with 1×PBS by centrifugation at 1200 rpm for 5 min at 4° C. Cell extracts were prepared in solubilization buffer (10 mM Tris, pH 7.2; 100 mM NaCl, 50 mM MgCl2, 1% Triton X-100). The cell extracts were used as samples for measuring the acetylcholine esterase (AChE) activity.
Cell extract samples (100 μl) were dispensed into each well of 96-well microtitre plate. Fifty micro liters of DTNB (Dithiobisnitro benzoate) solution was added to each well and incubated for 5 min at room temperature. After incubation, 50 μl of acetyl choline iodide solution was added to each well and absorbance was read immediately at 405 nm for 12 min at 2 min intervals. A standard curve was constructed by using serial concentrations of acetyl cholinesterase (0-100 mU). Total protein present in 100 μl aliquot of cell extract was calculated by Bradford method and the enzyme activity was normalized and expressed as unit activity per milligram of protein.

[2] = target: Acetylcholinesterase (Homo sapiens, UniProt P22303); test: Acetylcholinesterase inhibitory activity, in vitro enzymatic assay (Ellman method); assay type: biochemical; conditions: Table 3
Method: as §1
Acetylcholinesterase activity is measured using the substrate acetylthiocholine iodide, which is converted to thiocholine. The reaction of thiocholine with the chromogenic substrate Dithionitrobenzoic acid (DTNB) leads to the formation of a yellow anion, Nitrobenzoic acid, which absorbs strongly at 412 nm. Incubation was done for 10 min.
The AChE assay was performed by the method of Ellman et al, with minor modifications, using acetylthiocholine iodide as a substrate (Lee J. H., et. al. Arch Pharm Res 2004, 27(1): 53-56). Ellmans reaction mixture contains 0.5 mM acetylthiocholine iodide and 1 mM 5,5′-dithio-bis-(2-nitrobenzoic acid) in a 50 mM sodium phosphate buffer (pH 8.0). […] For blanks, enzyme was replaced with phosphate buffer. The reaction mixture was mixed thoroughly, 100 μl of Ellman's reagent was added and incubated at room temperature for 10 min. The absorbance was measured at 412 nm using microplate reader. The percentage inhibition of enzyme activity was calculated by comparing OD's of tests wells with that of control wells using the following formula. Calculations: % inhibition=[(control−sample)/control]×100.

[3] = target: T2, 5-lipoxygenase (5-LOX) (Homo sapiens, UniProt P09917); conditions: read-out: IC50 (5-LOX inhibition); cited from earlier work
T2 sequence (P09917 1-674): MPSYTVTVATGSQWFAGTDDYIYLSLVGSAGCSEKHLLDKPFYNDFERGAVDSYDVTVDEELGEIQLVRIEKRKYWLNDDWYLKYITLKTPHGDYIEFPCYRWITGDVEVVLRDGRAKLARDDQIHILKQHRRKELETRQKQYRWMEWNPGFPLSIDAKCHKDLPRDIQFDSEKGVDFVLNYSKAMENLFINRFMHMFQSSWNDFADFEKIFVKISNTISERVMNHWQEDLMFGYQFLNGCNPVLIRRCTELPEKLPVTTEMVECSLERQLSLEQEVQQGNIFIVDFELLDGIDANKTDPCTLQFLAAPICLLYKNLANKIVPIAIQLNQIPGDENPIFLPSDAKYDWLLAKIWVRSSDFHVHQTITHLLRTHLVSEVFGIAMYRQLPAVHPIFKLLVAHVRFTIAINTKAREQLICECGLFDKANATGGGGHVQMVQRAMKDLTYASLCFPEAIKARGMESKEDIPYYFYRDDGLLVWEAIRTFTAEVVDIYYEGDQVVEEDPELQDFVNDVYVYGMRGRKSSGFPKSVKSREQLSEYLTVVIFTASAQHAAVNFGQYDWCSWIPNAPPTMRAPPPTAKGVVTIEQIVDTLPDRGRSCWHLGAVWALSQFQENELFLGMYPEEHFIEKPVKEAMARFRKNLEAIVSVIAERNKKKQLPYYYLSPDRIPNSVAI

[4] = Comparative bioavailability of LI01008 (bisdemethylcurcumin) and its composition (serum, HPLC); conditions: oral, LI13124F1 450 mg/kg, LI01008 300 mg/kg
[5] = tested on: Sprague Dawley rats; test: Spatial learning and memory improvement, elevated radial arm maze (RAM); assay type: in vivo, rat; conditions: positive control 150 mg/kg, vs control group
Source text: The animal study protocol was approved by institutional animal ethics committee. Sprague Dawley rats were acclimatized for one week and healthy rats were selected for the study. The selected rats were pre-trained in elevated radial arm maze (RAM) adapted rats were allocated to various treatment groups each containing eight rats. After completion of pre-training, the oral treatment was initiated to the animals and continued daily up to two weeks. During this treatment phase the rats were placed on the RAM for 10 min each to recognize the food pellets present in the three different colored arms. During training the spatial learning was estimated by measuring various parameters like number of days required to learn the task, latency in finding food and number of wrong entries/attempts. After this treatment and training the animals were given rest without treatment or training for one week (3rd week). On 4th week, the animals were treated with allocated doses of test products and memory retention test was assessed using the same animals by measuring latency and number of wrong entries. The data was analyzed using ANOVA followed by a suitable post-hoc test.

Chain of Acetylcholinesterase (P22303 32-614, species assumed): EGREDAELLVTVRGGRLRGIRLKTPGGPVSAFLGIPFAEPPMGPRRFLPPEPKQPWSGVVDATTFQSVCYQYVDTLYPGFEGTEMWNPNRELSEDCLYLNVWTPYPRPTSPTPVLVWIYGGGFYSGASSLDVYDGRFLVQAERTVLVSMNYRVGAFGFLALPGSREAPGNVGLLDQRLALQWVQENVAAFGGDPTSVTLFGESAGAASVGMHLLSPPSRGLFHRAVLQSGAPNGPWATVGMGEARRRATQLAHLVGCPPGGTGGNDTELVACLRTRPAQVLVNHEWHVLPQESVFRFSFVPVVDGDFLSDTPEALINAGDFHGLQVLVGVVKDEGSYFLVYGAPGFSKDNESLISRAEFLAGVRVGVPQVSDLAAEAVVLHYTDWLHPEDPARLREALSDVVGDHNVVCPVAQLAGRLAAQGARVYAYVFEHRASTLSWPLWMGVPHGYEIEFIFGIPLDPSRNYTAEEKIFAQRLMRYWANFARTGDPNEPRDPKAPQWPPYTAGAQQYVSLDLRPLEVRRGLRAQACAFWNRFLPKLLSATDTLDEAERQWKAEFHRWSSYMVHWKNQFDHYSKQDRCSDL

| Compound | % inhibition in AChE activity ([1]; 100 ng/ml, Table 5) [%] | % Inhibition at concentrations of 25 ng [2] [%] | % Inhibition at concentrations of 50 ng [2] [%] | % Inhibition at concentrations of 100 ng [2] [%] | IC50 [2] [µg/mL] | other results |
| --- | --- | --- | --- | --- | --- | --- |
| 3-O-acetyl-11-keto-β-boswellic acid | 41.67 | 9.64 | 16.07 | 27.5 | >0.1 | IC50 [3]: 1.5 µM |
| CC(=O)O[C@@H]1CC[C@@]2(C)[C@@H](CC[C@]3(C)[C@@H]2CC=C2[C@@H]4CC(C)(C)CC[C@]4(C)CC[C@]23C)[C@@]1(C)C(=O)O [3-O-acetyl-α-boswellic acid] | 29.22 | 14.86 | 21.28 | 33.11 | >0.1 |  |
| CC(=O)O[C@@H]1CC[C@@]2(C)[C@@H](CC[C@]3(C)[C@@H]2CC=C2[C@@H]4[C@@H](C)[C@H](C)CC[C@]4(C)CC[C@]23C)[C@@]1(C)C(=O)O [3-O-acetyl-β-boswellic acid] | 37.34 | 36.29 | 40.32 | 52.02 | 0.09177 (≈ 0.184 µM) |  |
| C[C@H]1[C@H](C)CC[C@]2(C)CC[C@]3(C)C(=CC(=O)[C@@H]4[C@@]5(C)CC[C@@H](O)[C@](C)(C(=O)O)[C@@H]5CC[C@]43C)[C@H]12 [11-keto-β-boswellic acid] | 31.39 | 11.82 | 16.36 | 24.55 | >0.1 |  |
| O=C(/C=C/c1ccc(O)c(O)c1)CC(=O)/C=C/c1ccc(O)c(O)c1 [LI 01008, bisdemethylcurcumin] |  |  |  |  |  | Serum concentration of bisdemethylcurcumin ([4]; time after admn. 0, suspension in 0.5% CMC): 0; Serum concentration of bisdemethylcurcumin ([4]; time after admn. 0.5 (hours)): 0.07; Serum concentration of bisdemethylcurcumin ([4]; time after admn. 1 (hours)): 0.1085; Serum concentration of bisdemethylcurcumin ([4]; time after admn. 2 (hours)): 0.078; Serum concentration of bisdemethylcurcumin ([4]; time after admn. 4 (hours)): 0.035; Serum concentration of bisdemethylcurcumin ([4]; time after admn. 6 (hours)): 0.00535; Serum concentration of bisdemethylcurcumin ([4]; time after admn. 8 (hours)): 0; Serum concentration of bisdemethylcurcumin ([4]; time after admn. 12 (hours)): 0 |
| CN(C)C(=O)Oc1cccc([N+](C)(C)C)c1 [Neostigmin] |  |  |  |  |  | % inhibition in AChE activity ([1]; 20 ng/ml, Table 4): 49.1% and 49.09%; % inhibition in AChE activity ([1]; 20 ng/ml, Table 5): 54.65% |
| NC(=O)CN1CCCC1=O [Piracetam] |  |  |  |  |  | spatial learning (reduction in latency and Number of wrong entries) [5]: significant improvement |
| CC1(C)CC[C@]2(C)CC[C@]3(C)C(=CC[C@@H]4[C@@]5(C)CC[C@@H](O)[C@](C)(C(=O)O)[C@@H]5CC[C@]43C)[C@@H]2C1 [α-boswellic acid] | 38.42 | 13.85 | 21.92 | 39.23 | >0.1 |  |
| C[C@H]1[C@H](C)CC[C@]2(C)CC[C@]3(C)C(=CC[C@@H]4[C@@]5(C)CC[C@@H](O)[C@](C)(C(=O)O)[C@@H]5CC[C@]43C)[C@H]12 [β-boswellic acid] | 46.54 | 16.75 | 21.23 | 31.37 | >0.1 |  |
